Experimental data taken from patent US20220177459A1, “AROMATIC AMINE COMPOUND AND USE THEREOF IN PREPARATION OF AR AND BRD4 DUAL INHIBITORS AND REGULATORS” (HINOVA PHARMACEUTICALS INC., priority 2019, published 2022).

Biological target: T1, androgen receptor (AR) (Homo sapiens, UniProt P10275)
T1 construct: host or cells: HEK293
T1 sequence (P10275 1-920): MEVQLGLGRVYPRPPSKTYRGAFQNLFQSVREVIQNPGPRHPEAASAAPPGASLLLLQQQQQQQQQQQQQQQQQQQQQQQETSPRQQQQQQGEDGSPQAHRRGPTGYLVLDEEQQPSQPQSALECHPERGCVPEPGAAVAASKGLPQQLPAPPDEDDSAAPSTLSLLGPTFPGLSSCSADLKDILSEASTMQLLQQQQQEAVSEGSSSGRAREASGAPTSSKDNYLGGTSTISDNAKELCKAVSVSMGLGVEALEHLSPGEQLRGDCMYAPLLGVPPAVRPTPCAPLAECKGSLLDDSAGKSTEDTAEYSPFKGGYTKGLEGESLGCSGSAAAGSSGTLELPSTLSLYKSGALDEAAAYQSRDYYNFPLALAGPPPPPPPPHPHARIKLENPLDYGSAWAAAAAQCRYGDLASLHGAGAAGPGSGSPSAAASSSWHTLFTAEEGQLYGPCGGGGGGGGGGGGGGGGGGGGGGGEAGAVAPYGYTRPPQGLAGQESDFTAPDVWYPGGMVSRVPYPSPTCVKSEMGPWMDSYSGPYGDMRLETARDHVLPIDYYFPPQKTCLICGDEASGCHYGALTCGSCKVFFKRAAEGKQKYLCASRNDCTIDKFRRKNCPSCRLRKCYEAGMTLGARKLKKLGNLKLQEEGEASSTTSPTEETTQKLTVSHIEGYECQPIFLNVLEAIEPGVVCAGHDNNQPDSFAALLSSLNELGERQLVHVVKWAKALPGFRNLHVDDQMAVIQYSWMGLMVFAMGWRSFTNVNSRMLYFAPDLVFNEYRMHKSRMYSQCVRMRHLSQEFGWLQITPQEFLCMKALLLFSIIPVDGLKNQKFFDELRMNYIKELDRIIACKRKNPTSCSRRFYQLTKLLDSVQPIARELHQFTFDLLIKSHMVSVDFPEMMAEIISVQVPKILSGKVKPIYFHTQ
Experiment: Inhibitory activity on the function of androgen receptor (AR), luciferase reporter in transfected cells
Format: cell-based
Conditions: transfected with AR and pGL4.36, testosterone 2 nM, Steady-Glo
Description: Experimental Example 2 the Inhibitory Activity of the Compound According to the Present Invention on the Function of Androgen Receptor (AR)
Androgen receptor clone (Origene, Cat. No. RC235415)
pGL4.36 vector (Promega, Cat. No. E1360)
1) The cell suspension was diluted with the culture medium for seeding cells to a concentration of 4.0×10^5 cells/ml, for plating and adding transfection reagents.
2) The diluted cell suspension was inoculated into a cell culture plate, with 100 μL per well, and the plate was placed in a cell incubator and cultured overnight.
3) The transfection reagent was prepared as 10 μL/well, and added into the cell culture plate after 15 min at room temperature, then the plate was placed in a cell incubator and cultured overnight.
4) The compound was diluted by a 3-fold gradient with TECAN sampler, to obtain 8 concentration gradients, and the final DMSO concentration was 0.25%. The diluted compound was cultured in a 37° C. incubator for 30 min.
5) 250 nL of testosterone at a final concentration of 2 nM was added to the control well with an […] sampler, placed in a cell incubator, and cultured overnight.
6) Steady-Glo was added at 100 μL/well to the cell culture plate, and then the plate was left at room temperature for 15 min, followed by reading on Envision.
The data were analyzed according to the formula % Effect=(Sample value−LC)/(HC−LC)*100, using XL-fit software (provided by Business Solutions Ltd., version number XL fit 5.0). The inhibition rate of each compound against androgen receptor (AR) was calculated, and the half-inhibitory concentration IC50 of each compound against androgen receptor (AR) was further calculated.

Row | IC50 [µM] | Compound
1 | 1.3 | CCN(c1ccc(-c2c(C)noc2C)cc1)c1cc(-c2c(C)noc2C)ccc1C [Compound 104]
2 | 3.4 | CCN(c1ccc(-c2ccnn2C)cc1)c1cc(-c2c(C)noc2C)ccc1C [Compound 127]

Row | Compound | IC50 [µM]
3 | CCN(c1ccc(C#N)c(Cl)c1)c1cc(-c2c(C)noc2C)ccc1C [Compound 14] | 1.5

Test system: LNCaP/AR cells
Experiment: Inhibition of proliferation of prostate cancer cells LNCaP/AR (CCK-8)
Format: cell-based
Conditions: 144 h, 6 days culture, CCK-8, OD 450 nm, read-out: IC50 (μM), inhibitory activity on prostate cancer cell LNCap/AR
Description: 1. Biological determination of the inhibitory effect on the proliferation of prostate cancer cells LNCaP/AR
Cell culture medium: RIPM1640 media, 10% FBS, 1% Pen Strep;
(§1) 1) LNCaP/AR cells were subcultured in cell culture medium, and the cells in good growth condition were seeded in a 96-well plate, with 80 μL per well (i.e. 1000 cells per well), and cultured overnight in a 37° C., 5% CO2 cell incubator.
2) The drug was prepared with dimethylsulfoxide (DMSO) as a 10 mM stock solution.
(§2) Immediately before use, the stock solution was diluted 3 times with DMSO, and then diluted as a 3-fold gradient to obtain 9 concentration gradients. Then, the compound of each concentration was diluted 200 times with the culture media (to ensure that the DMSO concentration in the culture system was 0.1%), and two multiple holes were set for each concentration. 20 μL of the diluted compound was added to the cell culture well (with a final concentration of 10 μM, 3.3 μM, 1.1 μM . . . ), and then shook gently to mix. In addition, three negative control wells with only cells and three blank control wells with only culture medium were included (6 wells being each added with DMSO diluted 200 times with 20 μL culture medium).
(§3) 1) After culturing for 6 days, 10 μL of CCK-8 was added to each well and continued culturing for 1 hour in a 37° C., 5% CO2 cell incubator.
(§4) 2) The absorbance (OD value) was measured at 450 nm using a multifunctional microplate reader.
(§5) 3) The data were analyzed by the Dose-response-inhibition equation in the software GraphPad Prism5, and the IC50 value was obtained.

Row | Compound | IC50 [µM]
4 | CCN(c1ccc(C#N)c(Cl)c1)c1cc(-c2[nH]ncc2C)ccc1C [Compound 7] | 2.19
5 | Cc1ccc(-c2c(C)noc2C)cc1N(CCO)c1ccc(-n2ccnc2)c(Br)c1 [Compound 58] | 2.32
6 | CCN(c1ccc(C#N)c(Cl)c1)c1cc(-c2c(C)nn(CC)c2C)ccc1C [Compound 3] | 1.4
7 | CCN(c1ccc(C#N)c(Cl)c1)c1cc(-c2c(C)noc2C)ccc1C [Compound 14] | 0.55
8 | CCN(c1ccc2cn[nH]c2c1)c1cc(-c2c(C)noc2C)ccc1C [Compound 114] | 0.89
9 | CCN(c1ccc(-n2ccnc2)cc1)c1cc(-c2c(C)noc2C)ccc1C [Compound 25] | 1.25
10 | CCN(c1ccc(-c2cn(C)nn2)cc1)c1cc(-c2c(C)noc2C)ccc1C [Compound 102, 5-(3,5-dimethylisoxazol-4-yl)-N-ethyl-2-methyl-N-(4-(1-methyl-1H-1,2,3-triazol-4-yl)phenyl)aniline] | 1.45
11 | CCN(c1ccc2ncn(C)c2c1)c1cc(-c2c(C)noc2C)ccc1C [Compound 132] | 2.54
12 | CCN(c1ccc(C2(C#N)CCC2)cc1)c1cc(-c2c(C)noc2C)ccc1C [Compound 112] | 1.86
13 | CCN(c1ccc(-c2ccon2)cc1)c1cc(-c2c(C)noc2C)ccc1C [Compound 134] | 0.89
14 | CCN(c1ccc(-c2csnn2)cc1)c1cc(-c2c(C)noc2C)ccc1C [Compound 108, N-(4-(1,2,3-thiazol-4-yl)phenyl)-5-(3,5-dimethylisoxazol-4-yl)-N-ethyl-2-methylaniline] | 0.76
15 | CCN(c1ccc(S(C)(=O)=O)cc1)c1cc(-c2c(C)noc2C)ccc1C [Compound 113] | 2.53
16 | CCN(c1ccc(C#N)c(Cl)c1)c1cc(-c2c(C)n[nH]c2C)ccc1C [Compound 1] | 0.33
17 | CCN(c1ccc(C(N)=O)cc1)c1cc(-c2c(C)noc2C)ccc1C [Compound 123] | 3.03
18 | CCN(c1ccc(OC(F)(F)F)cc1)c1cc(-c2c(C)noc2C)ccc1C [Compound 109] | 4.46
19 | CCN(c1ccc(-c2cn[nH]c2C)cc1)c1cc(-c2c(C)noc2C)ccc1C [Compound 126] | 0.99
20 | CCN(c1ccc(C#N)c(C(F)(F)F)c1)c1cc(-c2c(C)noc2C)ccc1C [Compound 16] | 1.66
21 | CCN(c1ccc(-n2ccnc2)cc1)c1cc(-c2c(C)n[nH]c2C)ccc1C [Compound 21] | 3.98
22 | CCN(c1ccc(-n2cnc(Cl)c2)c(Br)c1)c1cc(-c2c(C)noc2C)ccc1C [Compound 43] | 2.79
23 | CCN(c1ccc(-c2nnco2)cc1)c1cc(-c2c(C)noc2C)ccc1C [Compound 129] | 1.13
24 | CCN(c1ccc(-c2nnc[nH]2)cc1)c1cc(-c2c(C)noc2C)ccc1C [Compound 130] | 1.16
25 | CCN(c1ccc(-c2cnc[nH]2)cc1)c1cc(-c2c(C)noc2C)ccc1C [Compound 107] | 3.67
26 | CCN(c1ccc(C#N)c(Cl)c1)c1cc(-c2c(C)nn(C(C)C)c2C)ccc1C [Compound 4] | 1.4
27 | Cc1ccc(-c2c(C)n[nH]c2C)cc1N(CCCCCO)c1ccc(C#N)c(Cl)c1 [Compound 6] | 3.67
28 | CCCn1nc(C)c(-c2ccc(C)c(N(CC)c3ccc(C#N)c(Cl)c3)c2)c1C [Compound 5] | 1.45
29 | Cc1ccc(-c2c(C)noc2C)cc1Nc1ccc(-c2c(C)noc2C)cc1 [Compound 119] | 0.17

Results, then the molecule that gave them:

Row | IC50 [µM] | Compound
30 | 0.7 | CCN(c1ccc(N)cc1)c1cc(-c2c(C)noc2C)ccc1C [Compound 100, N-1-(5-(3,5-dimethylisoxazol-4-yl)-2-methylphenyl) N1-ethylbenzene-1,4-diamine]
31 | 0.88 | CCN(c1ccc(-c2c[nH]nn2)cc1)c1cc(-c2c(C)noc2C)ccc1C [Compound 131]
32 | 8.74 | CCN(c1ccc2[nH]ncc2c1)c1cc(-c2c(C)noc2C)ccc1C [Compound 133]
33 | 6.42 | CCN(c1ccc(-n2ccnc2)cc1)c1cc(-c2c(C)nn(CCO)c2C)ccc1C [Compound 23]
34 | 3.3 | CCN(c1ccc(-n2ccnc2)cc1)c1cc2c(C)noc2cc1C [Compound 47]
35 | 0.4 | CCN(c1ccc([N+](=O)[O-])cc1)c1cc(-c2c(C)noc2C)ccc1C [Compound 99]
36 | 2.38 | CCN(c1ccc(-n2cnc(C)c2)c(Br)c1)c1cc(-c2c(C)noc2C)ccc1C [Compound 57]
37 | 0.71 | CCN(c1ccc(-c2ncon2)cc1)c1cc(-c2c(C)noc2C)ccc1C [Compound 105, N-(4-(1,2,4-oxadiazole-3-yl)phenyl)-5-(3,5-dimethylisoxazol-4-yl)-N-ethyl-2-methylaniline]
38 | 3.7 | CCN(c1ccc(-n2ccnc2)cc1)c1cc2onc(C)c2cc1C [Compound 48]
39 | 2.03 | CCN(c1ccc(-n2ccnc2)c(Br)c1)c1cc(-c2c(C)noc2C)cnc1C [Compound 67]
40 | 0.7 | CCN(c1ccc(-c2cncn2C)cc1)c1cc(-c2c(C)noc2C)ccc1C [Compound 106]
41 | 3.23 | CCN(c1ccc(-c2cc(C)[nH]n2)cc1)c1cc(-c2c(C)noc2C)ccc1C [Compound 97, 5-(3,5-dimethylisoxazol-4-)-N-ethyl-2-methyl-N-(4-(5-methyl-1H-pyrazol-3-yl)phenyl)aniline]
42 | 4.77 | CCN(c1ccc(-c2csc(N)n2)cc1)c1cc(-c2c(C)noc2C)ccc1C [Compound 98, 4-(4-((5-(3,5-dimethylisoxazol-4-)-2-methylphenyl)(ethyl)amino)phenyl)thiazol-2-amine]
43 | 1.2 | CCN(c1ccc(-n2cncn2)cc1)c1cc(-c2c(C)noc2C)ccc1C [Compound 35]
44 | 1.3 | CCN(c1ccc2nc[nH]c2c1)c1cc(-c2c(C)noc2C)ccc1C [Compound 115, N-(5-(3,5-dimethylisoxazol-4-yl)-2-methylphenyl) N-ethyl-1H-benzo[d]imidazole-6-amine]

Test system: 22RV1 cells
Experiment: Inhibition of proliferation of other prostate cancer cells: 22RV1
Format: cell-based
Conditions: Homo sapiens, same method as LNCaP/AR
Description: as §1, §2, §3, §4, §5
2. Biological determination of the inhibitory effect on the proliferation of other prostate cancer cells
The inhibitory activity of the compound according to the present invention on other drug-resistant prostate cancer cells was measured by the same method as described above, in which VCaP and 22RV1 cells were commercially available.

Row | Compound | IC50 [µM]
45 | CCN(c1ccc(-c2ccon2)cc1)c1cc(-c2c(C)noc2C)ccc1C [Compound 134] | 6.06
46 | CCN(c1ccc(C(N)=O)cc1)c1cc(-c2c(C)noc2C)ccc1C [Compound 123] | 5.64
47 | CCN(c1ccc(-c2cn[nH]c2C)cc1)c1cc(-c2c(C)noc2C)ccc1C [Compound 126] | 3.17
48 | CCN(c1ccc(-c2nnco2)cc1)c1cc(-c2c(C)noc2C)ccc1C [Compound 129] | 9.79

Continued, values first:

Row | IC50 [µM] | Compound
49 | 0.63 | Cc1ccc(-c2c(C)noc2C)cc1Nc1ccc(Br)cc1 [Compound 120]
50 | 0.07 | CCN(c1ccc(OC)cc1)c1cc(-c2c(C)noc2C)ccc1C [Compound 101]
